{
  "source": "patent EP4772162A1",
  "about": "“COMPOSITION FOR IMPROVING SKIN CONDITION COMPRISING PEPTIDE AS ACTIVE INGREDIENT” (Caregen Co., Ltd., priority 2023, dated 2025)",
  "key": {"[1]": {"system": "collagen Iα1 (Collagen, type I, alpha 1) gene", "assay": "mRNA expression of extracellular matrix component genes (RT-PCR)", "format": "cell-based, mouse", "settings": "NIH3T3 cells; peptide at 10 µM, 50 µM, and 100 µM; 24 hours; FIG. 1", "description": "(§1) The effect of the peptide prepared in Preparation Example 1 on expression of extracellular matrix (ECM) components was evaluated by measuring mRNA expression levels of the genes of the respective components.\n(§2) NIH3T3 cells (a mouse fibroblast cell line) were seeded in a 6-well plate at a density of 3 x 10^5 cells/well and cultured for 24 hours. The cultured cells were washed once with serum-free DMEM. The peptide prepared in Preparation Example 1 was mixed into serum-free DMEM at each concentration to prepare medium solutions containing the peptide at 10 µM, 50 µM, and 100 µM, and the medium solutions were added to the cells. The cells were cultured for 24 hours in a CO2 incubator at 37°C and washed twice with PBS, and then RNA was isolated using easy blue (iNtRON, Cat. No.: 17061, Korea). The amount of RNA was quantified, 1,000 ng of RNA was added per tube, and then cDNA synthesis was performed using an RT kit (enzynomics, Cat. No.: RT200, Korea). Thereafter, PCR was performed using a PCR kit (enzynomics, Cat. No.: P581T, Korea), with collagen Iα1, fibronectin, or elastin gene as a detection target."}, "[2]": {"system": "elastin gene", "assay": "mRNA expression of extracellular matrix component genes (RT-PCR)", "format": "cell-based, mouse", "settings": "NIH3T3 cells; peptide at 10 µM, 50 µM, and 100 µM; 24 hours; FIG. 1", "description": "as §1, §2"}, "[3]": {"system": "fibronectin gene", "assay": "mRNA expression of extracellular matrix component genes (RT-PCR)", "format": "cell-based, mouse", "settings": "NIH3T3 cells; peptide at 10 µM, 50 µM, and 100 µM; 24 hours; FIG. 1", "description": "as §1, §2"}, "[4]": {"system": "AQP3 (Aquaporin 3) gene", "assay": "mRNA expression of skin barrier-related genes (RT-PCR)", "format": "cell-based, human", "settings": "HaCaT cells; peptide at 10 µM, 50 µM, and 100 µM; 24 hours; FIG. 2", "description": "(§3) The effect of the peptide prepared in Preparation Example 1 on expression of genes related to a skin barrier was evaluated.\nas §2, with “HaCaT” for “NIH3T3”, “human keratinocyte” for “mouse fibroblast”, “SIRT1 (Sirtuin 1)” for “collagen Iα1, fibronectin,”, “AQP3 (Aquaporin 3)” for “elastin”"}, "[5]": {"system": "SIRT1 (Sirtuin 1) gene", "assay": "mRNA expression of skin barrier-related genes (RT-PCR)", "format": "cell-based, human", "settings": "HaCaT cells; peptide at 10 µM, 50 µM, and 100 µM; 24 hours; FIG. 2", "description": "as §3\nas §2, with “HaCaT” for “NIH3T3”, “human keratinocyte” for “mouse fibroblast”, “SIRT1 (Sirtuin 1)” for “collagen Iα1, fibronectin,”, “AQP3 (Aquaporin 3)” for “elastin”"}, "[6]": {"system": "reactive oxygen species (ROS) in NIH3T3 cells", "assay": "Inhibition of UV-induced generation of reactive oxygen species (DCFH-DA, FACS)", "format": "cell-based, mouse", "settings": "UVA at 6 J/cm^2, peptide at 10 µM, 50 µM, and 100 µM, 24 hours after irradiation, FIG. 3A", "description": "(§4) NIH3T3 cells (a mouse fibroblast cell line) and HaCaT cells (a human keratinocyte cell line) were seeded in a 6-well plate at a density of 5 x 10^5 cells/well and cultured for 24 hours. The cultured cells were washed once with serum-free DMEM. The peptide prepared in Preparation Example 1 was mixed into serum-free DMEM at each concentration to prepare medium solutions containing the peptide at 10 µM, 50 µM, and 100 µM, and the medium solutions were added to the cells. The cells to which the peptide was added were cultured for 1 hour in a CO2 incubator at 37°C. After the culture, the medium was removed from the cells, and PBS was added. Using a UV irradiator (VILBER LOURMAT, Cat. No.: 3102-BSU, France), NIH3T3 cells were irradiated with UVA at 6 J/cm^2, and HaCaT cells were irradiated with UVB at 15 mJ/cm^2. After PBS was removed, the above-described peptide-containing medium solutions at the respective concentrations were added again to the cells. The cells to which the peptide was added were cultured for 24 hours in a CO2 incubator at 37°C. After treatment with 10 µM DCFH-DA (2',7'-dichlorofluorescein diacetate), the cells were wrapped in foil and cultured for 30 minutes in a CO2 incubator at 37°C. Subsequently, the cells were washed twice with PBS and then collected, and fluorescence values were measured by FACS."}, "[7]": {"system": "reactive oxygen species (ROS) in HaCaT cells", "assay": "Inhibition of UV-induced generation of reactive oxygen species (DCFH-DA, FACS)", "format": "cell-based, human", "settings": "UVB at 15 mJ/cm^2, peptide at 10 µM, 50 µM, and 100 µM, 24 hours after irradiation, FIG. 3B", "description": "as §4"}, "[8]": {"system": "collagen Iα1 gene", "assay": "Restoration of expression of extracellular matrix genes reduced by UV irradiation (RT-PCR)", "format": "cell-based, mouse", "settings": "NIH3T3 cells; UVA at 6 J/cm^2; peptide at 10 µM, 50 µM, and 100 µM; 6 hours after irradiation; FIG. 4", "description": "(§5) Whether the peptide of SEQ ID NO: 1 prepared in Preparation Example 1 restores expression levels of extracellular matrix genes reduced by UV irradiation was evaluated.\n(§6) NIH3T3 cells (a mouse fibroblast cell line) were seeded in a 6-well plate at a density of 5 x 10^5 cells/well and cultured for 24 hours. The cultured cells were washed once with serum-free DMEM. The peptide prepared in Preparation Example 1 was mixed into serum-free DMEM at each concentration to prepare medium solutions containing the peptide at 10 µM, 50 µM, and 100 µM, and the medium solutions were added to the cells. The cells to which the peptide was added were cultured for 1 hour in a CO2 incubator at 37°C. After the cells were cultured, the medium was removed from the cells, and PBS was added. Using a UV irradiator (VILBER LOURMAT, Cat. No.: 3102-BSU, France), the cells were irradiated with UVA at 6 J/cm^2. After PBS was removed, the above-described peptide-containing medium solutions at the respective concentrations were added again to the cells. The cells to which the peptide was added were cultured for 6 hours in a CO2 incubator at 37°C. After the cells were washed twice with PBS, RNA was isolated using easy blue (iNtRON, Cat. No.: 17061, Korea). The amount of RNA was quantified, 1,000 ng of RNA was added per tube, and then cDNA synthesis was performed using an RT kit (enzynomics, Cat. No.: RT200, Korea). Subsequently, PCR was performed using a PCR kit (enzynomics, Cat. No.: P581T, Korea), with collagen Iα1, fibronectin, or elastin gene as a detection target."}, "[9]": {"system": "elastin gene", "assay": "Restoration of expression of extracellular matrix genes reduced by UV irradiation (RT-PCR)", "format": "cell-based, mouse", "settings": "NIH3T3 cells; UVA at 6 J/cm^2; peptide at 10 µM, 50 µM, and 100 µM; 6 hours after irradiation; FIG. 4", "description": "as §5, §6"}, "[10]": {"system": "fibronectin gene", "assay": "Restoration of expression of extracellular matrix genes reduced by UV irradiation (RT-PCR)", "format": "cell-based, mouse", "settings": "NIH3T3 cells; UVA at 6 J/cm^2; peptide at 10 µM, 50 µM, and 100 µM; 6 hours after irradiation; FIG. 4", "description": "as §5, §6"}, "[11]": {"system": "AQP3 gene", "assay": "Restoration of expression of skin barrier-related genes reduced by UV irradiation (RT-PCR)", "format": "cell-based, human", "settings": "HaCaT cells; UVB at 20 mJ/cm^2; peptide at 10 µM, 50 µM, and 100 µM; 4 hours after irradiation; FIG. 5", "description": "(§7) Whether the peptide of SEQ ID NO: 1 prepared in Preparation Example 1 restores expression levels of skin barrier-related genes reduced by UV irradiation was evaluated.\nas §6, with “HaCaT cells” for “NIH3T3 cells”, “(a human keratinocyte” for “(a mouse fibroblast”, “with UVB” for “with UVA”, “at 20 mJ/cm^2.” for “at 6 J/cm^2.”, “for 4” for “for 6”, “Korea). […]” for “Korea). Subsequently, PCR was performed using a PCR kit (enzynomics, Cat. No.: P581T, Korea), with collagen Iα1, fibronectin, or elastin gene as a detection target.”"}, "[12]": {"system": "SIRT1 gene", "assay": "Restoration of expression of skin barrier-related genes reduced by UV irradiation (RT-PCR)", "format": "cell-based, human", "settings": "HaCaT cells; UVB at 20 mJ/cm^2; peptide at 10 µM, 50 µM, and 100 µM; 4 hours after irradiation; FIG. 5", "description": "as §7\nas §6, with “HaCaT cells” for “NIH3T3 cells”, “(a human keratinocyte” for “(a mouse fibroblast”, “with UVB” for “with UVA”, “at 20 mJ/cm^2.” for “at 6 J/cm^2.”, “for 4” for “for 6”, “Korea). […]” for “Korea). Subsequently, PCR was performed using a PCR kit (enzynomics, Cat. No.: P581T, Korea), with collagen Iα1, fibronectin, or elastin gene as a detection target.”"}, "[13]": {"system": "MMP-1 in NIH3T3 cells", "assay": "Inhibition of UV-induced MMP-1 expression (Western blot)", "format": "cell-based, mouse", "settings": "UVA at 6 J/cm^2, peptide at 10 µM, 50 µM, and 100 µM, 24 hours after irradiation, FIG. 6A", "description": "(§8) The effect of the peptide of SEQ ID NO: 1 prepared in Preparation Example 1 on MMP-1 expression induced by UV was evaluated.\n(§9) NIH3T3 cells (a mouse fibroblast cell line) and HaCaT cells (a human keratinocyte cell line) were seeded in a 6-well plate at a density of 5 x 10^5 cells/well and cultured for 24 hours. The cultured cells were washed once with serum-free DMEM. The peptide prepared in Preparation Example 1 was mixed into serum-free DMEM at each concentration to prepare medium solutions containing the peptide at 10 µM, 50 µM, and 100 µM, and the medium solutions were added to the cells. The cells to which the peptide was added were cultured for 1 hour in a CO2 incubator at 37°C. After the cells were cultured, the medium was removed from the cells, and PBS was added. Using a UV irradiator (VILBER LOURMAT, Cat. No.: 3102-BSU, France), NIH3T3 cells were irradiated with UVA at 6 J/cm^2, and HaCaT cells were irradiated with UVB at 15 mJ/cm^2. After PBS was removed, the above-described peptide-containing medium solutions at the respective concentrations were added again to the cells. The cells to which the peptide was added were cultured for 24 hours in a CO2 incubator at 37°C. […] After treatment with an ECL solution (GE Healthcare, Cat. No.: RPN2232, USA), expression levels were analyzed using an ImageQuant 800 instrument (Cytiva, Cat. No.: 29-3994-81, USA)."}, "[14]": {"system": "MMP-1 in HaCaT cells", "assay": "Inhibition of UV-induced MMP-1 expression (Western blot)", "format": "cell-based, human", "settings": "UVB at 15 mJ/cm^2, peptide at 10 µM, 50 µM, and 100 µM, 24 hours after irradiation, FIG. 6B", "description": "as §8, §9"}},
  "note": "Peptide text beside a SMILES is read from it.",
  "data": [
    {"smiles": "CC(C)C[C@H](NC(=O)[C@H](CC(C)C)NC(=O)[C@@H](N)CCCNC(=N)N)C(=O)N[C@@H](CC(N)=O)C(=O)O", "note": "[peptide of SEQ ID NO: 1, RLLN] (H-RLLN-OH)", "values": [
      {"measurement": "mRNA expression level of collagen Iα1 (Collagen, type I, alpha 1) gene", "setting": "[1]", "result": "increased"},
      {"measurement": "mRNA expression level of elastin gene", "setting": "[2]", "result": "increased"},
      {"measurement": "mRNA expression level of fibronectin gene", "setting": "[3]", "result": "increased"},
      {"measurement": "mRNA expression level of AQP3 (Aquaporin 3) gene", "setting": "[4]", "result": "increased"},
      {"measurement": "mRNA expression level of SIRT1 (Sirtuin 1) gene", "setting": "[5]", "result": "increased"},
      {"measurement": "intracellular ROS levels increased by UV irradiation", "setting": "[6]", "result": "reduced"},
      {"measurement": "intracellular ROS levels increased by UV irradiation", "setting": "[7]", "result": "reduced"},
      {"measurement": "mRNA expression level of collagen Iα1 gene reduced by UV irradiation", "setting": "[8]", "result": "increased again"},
      {"measurement": "mRNA expression level of elastin gene reduced by UV irradiation", "setting": "[9]", "result": "increased again"},
      {"measurement": "mRNA expression level of fibronectin gene reduced by UV irradiation", "setting": "[10]", "result": "increased again"},
      {"measurement": "mRNA expression level of AQP3 gene reduced by UV irradiation", "setting": "[11]", "result": "restored"},
      {"measurement": "mRNA expression level of SIRT1 gene reduced by UV irradiation", "setting": "[12]", "result": "restored"},
      {"measurement": "increase in MMP-1 expression induced by UV irradiation", "setting": "[13]", "result": "inhibited"},
      {"measurement": "increase in MMP-1 expression induced by UV irradiation", "setting": "[14]", "result": "inhibited"}
    ]}
  ]
}
